Measurements as given in the supplement of paper PMC10307832.

Key:
Test in all cases: relative viability (nuclei count vs DMSO), 5 days (fraction); higher = more cells survive
BMX-IN-1 + Phenformin = compound: C=CC(=O)Nc1cc(-n2c(=O)ccc3cnc4ccc(-c5ccc(NS(C)(=O)=O)cc5)cc4c32)ccc1C [BMX-IN-1] + N=C(N)NC(=N)NCCc1ccccc1 [Phenformin] (partner 250 µM)
In short: (§1)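 The day after seeding in 1536-well plates, lung cancer cell lines were treated by pin tool with a single drug, or with a fixed anchor-drug dose together with five library-drug doses (not always all listed) in √10 steps. After 5 days, a combined fix-and-stain solution (final 0.05% Triton X-100, 1% formaldehyde, 1 ug/ml Hoechst) was added. Nuclei counted on 4× images gave relative viability as treated counts over vehicle counts, reported as the median of duplicate plates.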

Ibrutinib + Palbociclib = compound: C=CC(=O)N1CCC[C@@H](n2nc(-c3ccc(Oc4ccccc4)cc3)c3c(N)ncnc32)C1 [Ibrutinib] + CC(=O)c1c(C)c2cnc(Nc3ccc(N4CCNCC4)cn3)nc2n(C2CCCC2)c1=O [Palbociclib] (partner 0.5 µM)
In short: as §1

PAC-1 + Alpelisib = compound: C=CCc1cccc(/C=N/NC(=O)CN2CCN(Cc3ccccc3)CC2)c1O [PAC-1] + Cc1nc(NC(=O)N2CCC[C@H]2C(N)=O)sc1-c1ccnc(C(C)(C)C(F)(F)F)c1 [Alpelisib] (partner 2 µM)
In short: as §1

Ibrutinib + Foretinib = compound: C=CC(=O)N1CCC[C@@H](n2nc(-c3ccc(Oc4ccccc4)cc3)c3c(N)ncnc32)C1 [Ibrutinib] + COc1cc2c(Oc3ccc(NC(=O)C4(C(=O)Nc5ccc(F)cc5)CC4)cc3F)ccnc2cc1OCCCN1CCOCC1 [Foretinib] (partner 0.25 µM)
In short: as §1

Q: Which results are given for SK-MES-1?
A: relative viability (BMX-IN-1 + Phenformin; first compound 0.02 µM): 0.711; relative viability (BMX-IN-1 + Phenformin; first compound 0.2 µM): 0.792; relative viability (BMX-IN-1 + Phenformin; first compound 0.6325 µM): 0.695; relative viability (BMX-IN-1 + Phenformin; first compound 2 µM): 0.724; relative viability (Ibrutinib + Palbociclib; first compound 0.005 µM): 0.337; relative viability (Ibrutinib + Palbociclib; first compound 0.01581 µM): 0.324; relative viability (Ibrutinib + Palbociclib; first compound 0.05 µM): 0.382; relative viability (Ibrutinib + Palbociclib; first compound 0.1581 µM): 0.366; relative viability (Ibrutinib + Palbociclib; first compound 0.5 µM): 0.245; relative viability (PAC-1 + Alpelisib; first compound 0.02 µM): 0.845; relative viability (PAC-1 + Alpelisib; first compound 0.06325 µM): 0.908; relative viability (PAC-1 + Alpelisib; first compound 0.2 µM): 0.878; relative viability (PAC-1 + Alpelisib; first compound 2 µM): 0.955; relative viability (Ibrutinib + Foretinib; first compound 0.005 µM): 1.03; relative viability (Ibrutinib + Foretinib; first compound 0.01581 µM): 0.884; relative viability (Ibrutinib + Foretinib; first compound 0.05 µM): 0.841; relative viability (Ibrutinib + Foretinib; first compound 0.1581 µM): 0.989; relative viability (Ibrutinib + Foretinib; first compound 0.5 µM): 0.582
